Literature values as cited in patent US6127388A, “Azetidine, pyrrolidine and piperidine derivatives as 5-HT1D receptor agonists” (Merck Sharp & Dohme Ltd., priority 1996, dated 2000).

Settings: therapeutic doses

For `CNS(=O)(=O)Cc1ccc2[nH]cc(CCN(C)C)c2c1` [sumatriptan], the “adverse cardiovascular events in humans” value is listed as “certain adverse cardiovascular events”.
